Structures can show the parent of a compound that is named as a salt.
What was measured:
[1] = target: Human CB1R (Cannabinoid receptor 1) (Homo sapiens (Human), UniProt P21554); test: CB-1 in vitro cAMP assay (HTRF), inverse agonism; format: cell-based; conditions: mean where tested more than once
Text: (§1) CB1 and CB2 receptors are Gi-coupled GPCR. Activation of CB1 and CB2 receptors results in a decrease in cAMP production. An inverse agonist of the CB1 or CB2 receptor results in the opposite effect, an increase of cAMP production. The principle of this assay is based on HTRF® technology (Homogeneous Time-Resolved Fluorescence). The method is a competitive immunoassay between native cAMP produced by cells and the cAMP labeled with the fluorophore d2. The tracer binding is quantified by a Mab anti-cAMP labeled with Eu3+TBP-NHS Cryptate (supplied as part of the assay kit). The specific signal (i.e. energy transfer) is inversely proportional to the concentration of cAMP in the standard or sample.
(§2) Human CB1R (Cannabinoid receptor 1) was stably transfected in HEK-293 cells (DiscoveRx, cat: 93-0200C1). Human CB2R (Cannabinoid receptor 2) was stably transfected in HEK-293 cells (DiscoveRx, cat: 93-0201C1). Cell cultures were maintained in media: DMEM (Invitrogen Cat#12430-054) supplemented with 10% HI FBS (Invitrogen Cat#16140-071), 1% L-glutamine (Invitrogen Cat#25030-081), 0.2 mg/ml Hygromycin B (Invitrogen Cat#10687-010), 600 μg/mL G418 (Invitrogen Cat#10131-035), and 1X Penn/Strep (Invitrogen 15140-122). After cell expansion, aliquots were cryo-stored in media containing 5% DMSO (Pierce Cat#20684).
(§3) One day prior to experiments media was warmed to 37° C. and the cryo-stored cells were thawed in a 37° C. water bath. The cells were then added to media (10× volume) and the mixture was centrifuged at 1000 RPM for 5 min. The supernate was removed and the cells were re-suspended in media. A sample of the cell suspension was evaluated on a Cedex XS automated cell counter (Innovatis Systems) to determine viable cells/ml. Additional media was added to the cells to achieve a final cell density of 4E5 cells/mL. The cells were then plated into 384 well PDL white solid bottom plates (Greiner, Cat#781945) at 20 μL per well using a Multidrop (Thermo Scientific). Cells were removed from Row P (location of cAMP standards). Two columns of cells were plated into a clear bottom 384 well PDL coated plate (Greiner, Cat#781944) to view confluence the day of the assay. The cell plates were lidded and stored for 15 minutes in a hood, then transferred to an incubator (37° C., 5% CO2, 95% humidity) overnight.
(§4) DMSO was added to all wells of 384 well V bottom polystyrene plate (Greiner, Cat#781280) except to columns 1 and 13, rows 0 and P and wells M13-M23 and N13-N23. Test compounds (60 μL, 10 mM) were added to Column 1 and 13 (A1 through N1 and A13 through L13). Test compounds were serially diluted 1/3 by transferring and mixing 20 μl sample with 40 μL DMSO.
(§5) DMSO (40 μL) was added to wells of 384 well V bottom polystyrene plate: O2 through O11, M14 through M23, N14 through N23, and O14 through O23. AM630 (also known as [6-iodo-2-methyl-1-[2-(4-morpholinyl)ethyl]-1H-indol-3-yl](4-methoxyphenyl)-methanone, Cayman Chemical, Cat#10006974) (60 μL, 10 mM) was added to 01; and 1-(2,4-dichlorophenyl)-7-[(4-fluorophenyl)methylene]-4,5,6,7-tetrahydro-N-1-piperidinyl-1H-indazole-3-carboxamide (60 μL, 10 mM) was added to N13. The control was serially diluted 1/3 by transferring and mixing 20 μl sample with 40 μL DMSO. This process resulted 11 doses per control, 10 mM to […].
(§6) Cells plated the day prior to the assay in clear bottom plates were viewed on an inverse microscope to ensure confluency in the range of 60-75%. […]

[2] = target: Human CB2R (Cannabinoid receptor 2) (Homo sapiens (Human), UniProt P34972); test: CB-2 in vitro cAMP assay (HTRF), inverse agonism; format: cell-based; conditions: mean where tested more than once
Chain of Human CB2R (Cannabinoid receptor 2) (P34972 whole entry): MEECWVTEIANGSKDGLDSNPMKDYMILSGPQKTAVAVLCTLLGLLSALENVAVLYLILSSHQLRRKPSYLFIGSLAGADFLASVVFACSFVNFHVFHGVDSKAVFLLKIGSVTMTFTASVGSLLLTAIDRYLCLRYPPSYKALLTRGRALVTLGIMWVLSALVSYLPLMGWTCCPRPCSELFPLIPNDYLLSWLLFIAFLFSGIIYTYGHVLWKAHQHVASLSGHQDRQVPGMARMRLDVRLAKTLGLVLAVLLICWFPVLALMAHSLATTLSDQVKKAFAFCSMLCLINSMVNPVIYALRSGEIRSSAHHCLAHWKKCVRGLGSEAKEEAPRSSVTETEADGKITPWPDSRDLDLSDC
Text: as §1, §2, §3, §4, §5, §6

Chain of Human CB1R (Cannabinoid receptor 1) (P21554 whole entry): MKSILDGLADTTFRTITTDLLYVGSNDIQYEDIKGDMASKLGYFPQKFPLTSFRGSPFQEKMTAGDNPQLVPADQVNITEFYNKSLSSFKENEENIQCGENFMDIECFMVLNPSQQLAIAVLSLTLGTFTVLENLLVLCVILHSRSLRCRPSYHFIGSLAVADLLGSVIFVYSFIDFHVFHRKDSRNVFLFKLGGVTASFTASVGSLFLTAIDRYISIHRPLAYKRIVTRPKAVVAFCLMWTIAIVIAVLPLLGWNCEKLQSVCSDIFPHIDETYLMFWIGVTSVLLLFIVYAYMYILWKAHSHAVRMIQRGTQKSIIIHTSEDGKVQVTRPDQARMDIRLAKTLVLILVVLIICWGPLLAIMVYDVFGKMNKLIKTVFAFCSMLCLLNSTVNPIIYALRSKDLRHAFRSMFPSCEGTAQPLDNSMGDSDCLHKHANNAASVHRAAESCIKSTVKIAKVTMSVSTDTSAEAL

SMILES	EC50 [1]	EC50 [2]
O=C(O)c1cccc(CN2CCC(Nc3cc(=O)[nH]c4ccc(C(c5ccc(Cl)cc5)c5ccc(Cl)cc5)cc34)CC2)c1 [Compound 129, 3-((4-((6-(bis(4-chlorophenyl)methyl)-2-oxo-1,2-dihydroquinolin-4-yl)amino)piperidin-1-yl)methyl)benzoic acid]	0.157 µM	> 10 µM
O=c1cc(N[C@@H]2CCN(S(=O)(=O)C(F)(F)F)C2)c2cc(C(c3ccc(Cl)cc3)c3nccs3)ccc2[nH]1 (stereo partly drawn) [Compound 47, 6-[(4-Chlorophenyl)(1,3-thiazol-2-yl)methyl]-4-({(3R)-1-[(trifluoromethyl)sulfonyl]-pyrrolidin-3-yl}amino)quinolin-2(1H)-one]	0.075 µM	4.61 µM
CCOC(=O)N1CCC(Nc2cc(=O)[nH]c3ccc(C(c4ccc(Cl)cc4)c4nccs4)cc23)CC1 (stereo not drawn) [Compound 37, Ethyl 4-({6-[(4-chlorophenyl)(1,3-thiazol-2-yl)methyl]-2-oxo-1,2-dihydroquinolin-4-yl}amino)piperidine-1-carboxylate]	0.019 µM	> 10 µM
Cn1c(=O)cc(NC2CCN(S(=O)(=O)C(F)(F)F)CC2)c2cc(C(c3ccc(Cl)cc3)c3nccs3)ccc21 (stereo not drawn) [Compound 89, 6-[(4-chlorophenyl)(1,3-thiazol-2-yl)methyl]-1-methyl-4-[[1-(trifluoromethane)sulfonylpiperidin-4-yl]amino]-1,2-dihydroquinolin-2-one]	0.014 µM	9.9 µM
O=c1cc(NC2CCN(CC(F)(F)F)CC2)c2cc(C(c3ccc(Cl)cc3)c3ccc(Cl)cc3)ccc2[nH]1 [Compound #77, 6-(bis(4-chlorophenyl)methyl)-4-((1-(2,2,2-trifluoroethyl)piperidin-4-yl)amino)quinolin-2(1H)-one]	0.003 µM	> 10 µM
O=c1cc(/C=C/c2cccc(F)c2)c2cc(C(c3ccc(Cl)cc3)c3ccsc3)ccc2[nH]1 (stereo not drawn) [Compound 16, 6-[(4-Chlorophenyl)(thiophen-3-yl)methyl]-4-[(E)-2-(3-fluorophenyl)ethenyl]quinolin-2(1H)-one]	0.083 µM	0.09 µM
O=C(O)COc1cc(C(c2ccc(Cl)cc2)c2ccc(Cl)cc2)cc2c(NC3CCN(S(=O)(=O)C(F)(F)F)CC3)cc(=O)[nH]c12 [Compound 545]	4.9 µM	> 10 µM
COC(=O)c1ccc(Nc2cc(=O)[nH]c3ccc(C(c4ccc(Cl)cc4)c4ccc(Cl)cc4)cc23)cc1 [Compound 85, Methyl 4-({6-[bis(4-chlorophenyl)methyl]-2-oxo-1,2-dihydroquinolin-4-yl}amino)benzoate]	0.07 µM	> 10 µM
OC(c1ccc(Cl)cc1)(c1ccc2nccc(/C=C/c3ccccc3)c2c1)c1cccs1 (stereo not drawn) [Compound 506, (4-Chlorophenyl){4-[(E)-2-phenylethenyl]quinolin-6-yl}thiophen-2-ylmethanol]	> 10 µM	> 10 µM
CC(C)(C)Oc1cc(/C=C/c2cccc(F)c2)c2cc(C(O)(c3ccc(Cl)cc3)c3ccsc3)ccc2n1 (stereo not drawn) [Compound 518, (E)-(2-(tert-butoxy)-4-(3-fluorostyryl)quinolin-6-yl)(4-chlorophenyl)(thiophen-3-yl)methanol]	> 10 µM	0.54 µM
O=c1cc(NC2CCN(S(=O)(=O)C(F)(F)F)CC2)c2cc(C(c3ccc(Cl)cc3)N3CCN(c4ccccc4)CC3)ccc2[nH]1 (stereo not drawn) [Compound 137, 6-((4-chlorophenyl)(4-phenylpiperazin-1-yl)methyl)-4-((1-((trifluoromethyl)sulfonyl)piperidin-4-yl)amino)quinolin-2(1H)-one]	0.29 µM	> 10 µM
CC(C)(C)OC(=O)N1CC(CNc2cc(=O)[nH]c3ccc(C(c4ccc(Cl)cc4)c4nccs4)cc23)C1 (stereo not drawn) [Compound 42, tert-Butyl 3-[({6-[(4-chlorophenyl)(1,3-thiazol-2-yl)methyl]-2-oxo-1,2-dihydroquinolin-4-yl}amino)methyl]azetidine-1-carboxylate]	2.33 µM	

Next, values leading:

EC50 [1]	EC50 [2]	SMILES
0.102 µM	> 10 µM	CC(=O)NCCCCOc1cc(C(c2ccc(Cl)cc2)c2ccc(Cl)cc2)cc2c(NC3CCN(S(=O)(=O)C(F)(F)F)CC3)ccnc12 [Compound 543, N-(4-((6-(bis(4-chlorophenyl)methyl)-4-((1-((trifluoromethyl)sulfonyl)piperidin-4-yl)amino)quinolin-8-yl)oxy)butyl)acetamide, trifluoroacetic acid salt]
0.339 µM	> 10 µM	O=S(=O)(N1CCC(Nc2ccnc3c(O)cc(C(c4ccc(Cl)cc4)c4ccc(Cl)cc4)cc23)CC1)C(F)(F)F [Compound 541, 6-(bis(4-chlorophenyl)methyl)-4-((1-((trifluoromethyl)sulfonyl)piperidin-4-yl)amino)quinolin-8-ol]
0.064 µM	4.3 µM	O=c1cc(NC2CCN(S(=O)(=O)C(F)(F)F)CC2)c2cc(C(c3ccc(Cl)cc3)c3nc4ccccc4s3)ccc2[nH]1 (stereo not drawn) [Compound 65, 6-[1,3-Benzothiazol-2-yl(4-chlorophenyl)methyl]-4-({1-[(trifluoromethyl)sulfonyl]-piperidin-4-yl}amino)quinolin-2(1H)-one]
0.366 µM	> 10 µM	O=c1cc(Cc2ccc(OC(F)(F)F)cc2)c2cc(C(c3ccc(Cl)cc3)c3nccs3)ccc2[nH]1 (stereo not drawn) [Compound 515, 6-((4-chlorophenyl)(thiazol-2-yl)methyl)-4-(4-(trifluoromethoxy)benzyl)quinolin-2(1H)-one]
1.21 µM	> 10 µM	O=c1cc(/C=C/c2ccc(C(F)(F)F)cc2)c2cc(C(c3ccccc3)c3ccc(Cl)cc3)ccc2[nH]1 (stereo not drawn) [Compound 33, 6-[(4-Chlorophenyl)(phenyl)methyl]-4-{(E)-2-[4-(trifluoromethyl)phenyl]-ethenyl}quinolin-2(1H)-one]
0.876 µM	> 10 µM	O=C(O)c1ccc(CN2CCC(Nc3cc(=O)[nH]c4ccc(C(c5ccc(Cl)cc5)c5ccc(Cl)cc5)cc34)CC2)cc1 [Compound 127, 4-{[4-({6-[Bis(4-chlorophenyl)methyl]-2-oxo-1,2-dihydroquinolin-4-yl}amino)piperidin-1-yl]methyl}benzoic acid]
> 10 µM	> 10 µM	CCCCNc1cc(C(c2ccc(Cl)cc2)c2ccc(Cl)cc2)cc2c(NC3CCN(S(=O)(=O)C(F)(F)F)CC3)cc(=O)n(C)c12 [Compound 139, 6-[bis(4-chlorophenyl)methyl]-8-(butylamino)-1-methyl-4-[[1-(trifluoromethane)sulfonylpiperidin-4-yl]amino]-1,2-dihydroquinolin-2-one]
> 10 µM	> 10 µM	O=C(O)c1ccc(Nc2cc(=O)[nH]c3ccc(C(c4ccc(Cl)cc4)c4ccc(Cl)cc4)cc23)cc1 [Compound 86, 4-({6-[Bis(4-chlorophenyl)methyl]-2-oxo-1,2-dihydroquinolin-4-yl}amino)benzoic acid]
0.054 µM	6.75 µM	O=c1cc(NCc2cncc(C(F)(F)F)c2)c2cc(C(c3ccc(Cl)cc3)c3ccc(Cl)cc3)ccc2[nH]1 [Compound 79, 6-[Bis(4-chlorophenyl)methyl]-4-({[5-(trifluoromethyl)pyridin-3-yl]methyl}amino)quinolin-2(1H)-one]
> 10 µM		O=c1cc(NCC2CNC2)c2cc(C(c3ccc(Cl)cc3)c3nccs3)ccc2[nH]1 (stereo not drawn) [Compound 43, 4-[(Azetidin-3-ylmethyl)amino]-6-[(4-chlorophenyl)(1,3-thiazol-2-yl)methyl]quinolin-2(1H)-one]
